A word on the IC50: it is the concentration needed to halve the response being measured.

From ChEMBL document CHEMBL3774347, “Docking and Linking of Fragments To Discover Jumonji Histone Demethylase Inhibitors” (J Med Chem, 2016) come the findings set out here.

Active and inactive are the calls of the source. No cut-off for these calls is given here.

For assay [1], the target named is T1, Lysine-specific demethylase 4C (Homo sapiens) (UniProt Q9H3R0).
T1 sequence (whole entry): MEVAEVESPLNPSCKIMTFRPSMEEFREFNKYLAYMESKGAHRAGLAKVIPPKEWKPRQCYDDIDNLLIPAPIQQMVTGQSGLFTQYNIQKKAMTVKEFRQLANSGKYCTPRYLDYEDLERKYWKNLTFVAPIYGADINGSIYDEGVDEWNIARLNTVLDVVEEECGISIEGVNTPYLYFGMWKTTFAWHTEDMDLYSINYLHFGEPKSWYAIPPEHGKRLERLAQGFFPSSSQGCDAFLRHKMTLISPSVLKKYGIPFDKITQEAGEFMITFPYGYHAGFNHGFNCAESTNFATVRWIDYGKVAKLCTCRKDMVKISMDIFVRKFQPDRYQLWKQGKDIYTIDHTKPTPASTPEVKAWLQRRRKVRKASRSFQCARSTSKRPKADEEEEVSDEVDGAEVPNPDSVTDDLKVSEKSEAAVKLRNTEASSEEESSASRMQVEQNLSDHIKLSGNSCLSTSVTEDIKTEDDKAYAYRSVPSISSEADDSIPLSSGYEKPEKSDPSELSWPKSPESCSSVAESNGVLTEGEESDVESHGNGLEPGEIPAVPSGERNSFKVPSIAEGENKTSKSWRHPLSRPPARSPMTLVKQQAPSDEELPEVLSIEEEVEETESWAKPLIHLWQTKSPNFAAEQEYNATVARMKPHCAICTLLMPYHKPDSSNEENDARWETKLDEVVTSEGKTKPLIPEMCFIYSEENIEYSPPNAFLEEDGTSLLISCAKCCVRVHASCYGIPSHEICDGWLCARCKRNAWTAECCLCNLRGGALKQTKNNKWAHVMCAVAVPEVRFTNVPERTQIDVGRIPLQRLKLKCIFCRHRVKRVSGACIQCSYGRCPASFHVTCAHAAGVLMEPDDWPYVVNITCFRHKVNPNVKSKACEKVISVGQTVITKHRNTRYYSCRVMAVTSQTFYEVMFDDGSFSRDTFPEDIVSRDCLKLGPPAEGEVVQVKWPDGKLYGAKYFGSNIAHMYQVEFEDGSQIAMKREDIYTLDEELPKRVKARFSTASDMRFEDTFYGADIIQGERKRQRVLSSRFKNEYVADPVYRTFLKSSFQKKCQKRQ
The experiment in a line: (§1) Inhibition of N-terminal His6-tagged KDM4C (1 to 352 residues) (unknown origin) expressed in Escherichia coli Rosetta 2(DE3)pLysS using biotinylated histone H3 (1 to 21 residues) lysine 9 trimethylated peptide/2 uM alpha-ketoglutarate as substrate/cofactor measured after 45 mins by TR-FRET assay. (In TR-FRET formats the signal depends on donor and acceptor labels being close together.)

Assay [2] addresses T2, Lysine-specific demethylase 4C (Homo sapiens, UniProt Q9H3R0).
T2 sequence (Q9H3R0 whole entry): T1 sequence (whole entry)
Described as §1.

Assay [3] addresses T2, Lysine-specific demethylase 4C. Nature of the assay: Inhibition of N-terminal His6-tagged KDM4C (1 to 352 residues) (unknown origin) expressed in Escherichia coli Rosetta 2(DE3)pLysS using biotinylated histone H3 (1 to 21 residues) lysine 9 trimethylated peptide/50 uM alpha-ketoglutarate as substrate/cofactor measured after 45 mins by TR-FRET assay.
Assay [4] can be described thus: Induction of aggregates formation assessed as particle formation up to 10 uM by dynamic light scattering method.
A short description of assay [5]: Inhibition of AmpC beta-lactamase (unknown origin).
Assay [6] has as its target T1, Lysine-specific demethylase 4C (Homo sapiens). The experiment in a line: Binding affinity to N-terminal His6-tagged KDM4C (1 to 352 residues) (unknown origin) expressed in Escherichia coli Rosetta 2(DE3)pLysS at 1.7 mM by SYPRO Orange dye based thermal shift assay.

As to `CC(=O)Nc1ccc(O)c(C(=O)O)c1`, the inhibition entry in assay [1] is “inactive”. Take `O=C(O)Cn1nnnc1COc1ccccc1`: in assay [2] (read-out: IC50), the IC50 came out at 2320 µM. In the case of `O=C(O)c1ccnc(-c2cc(NC(=O)c3cccc(O)c3)ccc2O)c1`, the half-maximal inhibitory concentration (IC50) in assay [2] (read-out: IC50) was 0.46 µM. For `COc1ccc(CC(=O)Nc2ccc(O)c(-c3cc(C(=O)O)ccn3)c2)cc1`, the IC50 in assay [3] (read-out: IC50) stood at 3.7 µM; in assay [2] (read-out: IC50) it was 0.069 µM. `COCC(=O)Nc1ccc(O)c(C(=O)O)c1`: the outcome in assay [4] was inactive. Further, the IC50 in assay [2] (read-out: IC50) worked out at 98 µM.

Take `COc1ccc(N)cc1-c1cc(C(=O)O)ccn1`: the IC50 in assay [2] (read-out: IC50) amounted to 310 µM.

As to `CC(=O)Nc1ccc(O)c(-c2ccccn2)c1`, the IC50 entry in assay [3] and in assay [2] was “Not Active” throughout. Take `Cc1cc(O)c2c(CC(=O)O)cc(=O)oc2c1`: in assay [2] (read-out: IC50), the IC50 was determined as 176 µM. On to `CC(=O)c1ccccc1-c1cc(C(=O)O)ccn1`, for which the IC50 in assay [2] (read-out: IC50) was found to be 507 µM.

As to `C[C@@H](NC(=O)c1cc(Cl)ccn1)C(=O)O`, the IC50 in assay [2] (read-out: IC50) turned out to be 1210 µM. On to `Cn1nccc1CNc1ccc(O)c(C(=O)O)c1`, for which the outcome in assay [4] was inactive. For the same compound, the IC50 in assay [2] (read-out: IC50) turned out to be 58 µM. Turning to `CCNC(=S)Nc1ccc(O)c(C(=O)O)c1`, the IC50 in assay [2] (read-out: IC50) stood at 165 µM. The same measure, in the same setting: to `CN1CCN(C(=O)c2ccn(CC(=O)O)n2)CC1` belongs 387 µM; to `NC(=O)N[C@H](Cc1c[nH]c2ccccc12)C(=O)O`, 54.7 µM. With `Cc1ccccc1CNc1ccc(O)c(C(=O)O)c1`, the inhibition entry in assay [5] was “inactive”. For the same compound, in assay [6], the outcome was Active. Consider `CCCNC(=O)NC(C)(C)C(=O)O`, for which the concentration for half-maximal inhibition (IC50) in assay [2] (read-out: IC50) turned out to be 126 µM. In the case of `CC(=O)N[C@@H](CCC(=O)O)C(=O)O`, the IC50 in assay [2] (read-out: IC50) stood at 2070 µM. For the compound `O=C(O)c1ccnc(-c2cc(NC(=O)c3ccno3)ccc2O)c1`, the IC50 in assay [2] (read-out: IC50) came out at 1.02 µM.

Regarding `O=C(Cc1ccccc1)Nc1ccc(O)c(-c2cc(C(=O)O)ccn2)c1`, the IC50 turned out to be 17 µM in assay [3] (read-out: IC50) and 0.43 µM in assay [2] (read-out: IC50).

`Cn1nccc1CNc1ccc(O)c(-c2cc(C(=O)O)ccn2)c1`: the IC50 in assay [2] (read-out: IC50) came to 0.77 µM.

`N#Cc1ccc(O)c(-c2cc(C(=O)O)ccn2)c1`: in assay [2] (read-out: IC50), the IC50 stood at 6 µM. As to `O=C(O)CNC(=O)c1ccc2ccccc2n1`, the IC50 in assay [2] (read-out: IC50) amounted to 2810 µM.

As for `O=C(O)[C@@H]1CC(=O)N(c2nccs2)C1`, in assay [2] (read-out: IC50), the IC50 was determined as 676 µM.

For the compound `O=C(Cc1cccc(Br)c1)Nc1ccc(O)c(-c2cc(C(=O)O)ccn2)c1`, the IC50 is 3.4 µM in assay [3] (read-out: IC50) and 0.17 µM in assay [2] (read-out: IC50). On to `O=C(O)c1ccnc(-c2cc(NC(=O)c3ccccc3O)ccc2O)c1`, for which the IC50 in assay [2] (read-out: IC50) was 4.6 µM.

As for `O=C(O)c1cc(NCc2cccc3c2OCO3)ccc1O`, the IC50 in assay [2] (read-out: IC50) is 15 µM. Regarding `NC(=O)N[C@@H](Cc1c[nH]c2ccccc12)C(=O)O`, the IC50 in assay [2] (read-out: IC50) was 18.6 µM. `Nc1ccc(O)c(-c2cc(C(=O)O)ccn2)c1`: in assay [2] (read-out: IC50), the IC50 turned out to be 8.3 µM. With `O=C(O)c1ccnc(-c2cc(NCc3ccc(Br)cc3)ccc2O)c1`, the IC50 in assay [2] (read-out: IC50) worked out at 2.5 µM. The same measure, in the same setting: to `O=C(O)c1ccnc(-c2cc(NCc3cccc4c3OCO4)ccc2O)c1` belongs 0.56 µM.
